Laboratory results reported in article PMC6145916, “Interaction of mitochondrial fission factor with dynamin related protein 1 governs physiological mitochondrial function in vivo” (Scientific Reports, 2018).
Where no end group is shown, it is not given here.

Tested on: Mfn2
Assay: Binding of recombinant Mfn2 to surface-conjugated P259 (AGILE-R100 graphene sensor)
Parameters: species or system human
Conditions: P259 surface-conjugated (50 nM), 100 nM protein, RIPA buffer pH 8.0; n = 3, with 3 replicates
From the text: Figure 1 Rational peptide design identifies a novel inhibitor of the Mff-Drp1 protein-protein interaction. (a) A scheme of the rationale behind the inhibitor design. […] Surface and ribbon diagrams of Drp1 structure (PDB, 4BEJ) with the GTPase, bundle signaling element (BSE), and stalk domains highlighted. (d) A heatmap representing sequence conservation of human proteins that contain a region similar to P259. Sequence conservation corresponds to the number of residues similar/identical to P259 from each sequence. […] The obtained graph is of the mean standardized response and ± s.e. as a function of time for n = 3 individual experiments, with 3 technical replicates each. […] Represented Western blot is cropped from a full blot shown in the Expanded Western Blots section of the Supplementary Information. (h) Relative GTPase activity of recombinant Drp1 in the presence of 1 µM of peptide (n = 3–5). Data are mean ± s.e. from 3–5 independent experiments per condition.
Drp1 and Mff. Utilizing BioPython, a pairwise alignment was performed between each ortholog […]
brief, an automated microwave peptide synthesizer (Liberty, CEM Corporation) was used to perform solid phase peptide synthesis by a series of coupling of fluorenylmethoxycarbonyl (Fmoc)-protected amino acids and hydroxybenz otriazol (HOBt) […] reaction steps. […]

For “YGRKKRRQRRRGSGIIQLPEIVVV-NH2 (C-terminus assumed) [P259]”, the “binding to Mfn2” value was “only negligible binding”.
